Reference: PMC4456249 (Structure (London, England : 1993), 2015)

B1: E66S CCL5 (natural protein)
chain: MSPYSSDTTPCCFAYIARPLPRAHIKEYFYTSGKCSNPAVVFVTRKNRQVCANPEKKWVREYINSLSMS

Tests used:
CCL5 = conditions: ref Mizumoto et al., 2013; cited from earlier work
NMR = target: the molecule itself; assay: NMR

Row | Molecule | Affinity for CCL5 (CCL5) | ratio of dimer-to-monomer (30 uM, 40 °C, without CS444) (NMR) | stoichiometry N (NMR)
1 | chondroitin sulfate [CS] | submicromolar affinities |  | 
2 | dermatan sulfate [DS] | submicromolar affinities |  | 
3 | B1 |  | ~1 | 2
